The target of test [1] is RIPK1 (Homo sapiens (Human), UniProt Q13546). The test is described as follows: biochemical. Type of test: biochemical. In a few lines:
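ADP-Glo luminescent assay of RIPK1 at 31 ng/well in Tris-HCl pH 7.4 buffer with MgCl2, BSA, 100 μM DTT and 4 mM MnCl2; compounds run in duplicate. Kinase reaction 30 min at 30 °C, then ADP-Glo 40 min and detection reagent 30 min at room temperature; ADP formation read as luminescence.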

Test [2] concerns U937 cells. The test is described as follows: U937 cell necroptosis assay (TNFa + zVAD, CellTiter-Glo recovery), functional human RIP1 assay. It counts as cell-based. The following applies: Homo sapiens, U-937, 18 h, read-out: U937 Zvad TNF CTG Recovery, U937, TNFa + zVAD (IC50), U937 cells, zVAD-fmk, TNFa 2 ng/mL, 18 hours, CellTiter-Glo. The gist of the method:
(§1)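 Human U937 cells (50K/well, 60 uM zVAD-fmk in plating medium) and murine L929 cells (10K/well, medium replaced with 40 uM zVAD-fmk) were pre-incubated with compound 1 h at 37 °C. TNFa was then added at a final 2 ng/mL. Viability by CellTiter-Glo luminescence after 18 h.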
On the technique in general: Cellular ATP, detected with luciferase, serves as a proxy for viable cell number.

Test [3] concerns L929 cells. The test is described as follows: L929 cell necroptosis assay (TNFa + zVAD, CellTiter-Glo recovery), functional murine RIP1 assay. It counts as cell-based. The conditions noted are these: Mus musculus, L929, 18 h, read-out: L929-CTG-recovery, L929, TNFa + zVAD (IC50), L929 cells, zVAD-fmk, TNFa 2 ng/mL, 18 hours, CellTiter-Glo. The gist of the method:
as §1

Setting [4] is: RIPK1 enzyme 31 ng/well, 30° C. for 30 minutes, luminescence, read-out: RIPK1 ADP-Glo Kinase (IC50).

22 compounds from patent US11667643B2, “RIP1K inhibitors” (priority 2020, dated 2023) can be followed below.

Where two headings read alike, the source gives them in different places.

Sequence of RIPK1 (Q13546 whole entry, species assumed): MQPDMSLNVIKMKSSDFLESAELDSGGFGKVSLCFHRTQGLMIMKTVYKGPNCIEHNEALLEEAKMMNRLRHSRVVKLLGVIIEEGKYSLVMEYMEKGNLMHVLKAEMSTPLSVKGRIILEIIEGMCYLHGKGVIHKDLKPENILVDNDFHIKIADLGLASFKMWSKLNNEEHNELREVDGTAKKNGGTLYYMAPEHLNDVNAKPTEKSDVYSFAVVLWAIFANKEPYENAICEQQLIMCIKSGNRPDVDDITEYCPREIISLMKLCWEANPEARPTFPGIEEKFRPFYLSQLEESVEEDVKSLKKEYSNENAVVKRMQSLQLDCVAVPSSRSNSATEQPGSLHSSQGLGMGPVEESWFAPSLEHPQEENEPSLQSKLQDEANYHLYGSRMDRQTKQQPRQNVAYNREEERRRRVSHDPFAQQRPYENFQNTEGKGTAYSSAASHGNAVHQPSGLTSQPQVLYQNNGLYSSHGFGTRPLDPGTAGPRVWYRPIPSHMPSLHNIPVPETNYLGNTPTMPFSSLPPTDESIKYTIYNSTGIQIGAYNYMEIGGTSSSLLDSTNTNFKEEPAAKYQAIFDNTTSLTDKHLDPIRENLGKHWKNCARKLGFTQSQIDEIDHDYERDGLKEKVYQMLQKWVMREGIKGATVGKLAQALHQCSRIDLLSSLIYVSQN

`O=C(NC1CCc2ccccc2-n2c(Cl)cnc21)c1ncn(Cc2c(Cl)cccc2Cl)n1` (racemic) [Compound I-74, (±)-N-(1-Chloro-5,6-dihydro-4H-benzo[f]imidazo[1,2-a]azepin-4-yl)-1-(2,6-dichlorobenzyl)-1H-1,2,4-triazole-3-carboxamide]: the IC50 in test [1] (setting [4]) turned out to be 0.054 µM; in test [2] it was 0.0898 µM; in test [3], 8.62 µM.
The like results for `O=C(NC1CCc2ccccc2-n2c1n[nH]c2=O)c1ncn(Cc2c(Cl)cccc2Cl)n1` (racemic) [Compound I-36, (±)-1-(2,6-Dichlorobenzyl)-N-(1-oxo-2,4,5,6-tetrahydro-1H-benzo[f][1,2,4]triazolo[4,3-a]azepin-4-yl)-1H-1,2,4-triazole-3-carboxamide] were, in that order, 2.8 µM, 0.714 µM and 16.1 µM.
Take `O=C(N[C@H]1CSc2ccccc2-n2c1noc2=O)c1n[nH]c(Cc2ccccc2)n1` [Compound I-33, 5-Benzyl-N-((4R)-1-oxo-4,5-dihydro-1H-benzo[b][1,2,4]oxadiazolo[4,3-d][1,4]thiazepin-4-yl)-1H-1,2,4-triazole-3-carboxamide]: the IC50 was 0.0125 µM in test [1] (setting [4]), 0.0056 µM in test [2] and 5.16 µM in test [3].
Consider `O=C(NC1CCc2ccccc2-n2ccnc21)c1cc(Cc2ccccc2)on1` (racemic) [Compound I-9, (±)-5-Benzyl-N-(5,6-dihydro-4H-benzo[f]imidazo[1,2-a]azepin-4-yl)isoxazole-3-carboxamide], for which the IC50 is 0.0261 µM in test [1] (setting [4]), 0.222 µM in test [2] and 10000 µM in test [3].
Take `O=C(NC1CCc2ccccc2-n2c1nc(Cl)c2Cl)c1ncn(Cc2c(Cl)cccc2Cl)n1` (racemic) [Compound I-73, (±)-N-(1,2-Dichloro-5,6-dihydro-4H-benzo[f]imidazo[1,2-a]azepin-4-yl)-1-(2,6-dichlorobenzyl)-1H-1,2,4-triazole-3-carboxamide]: the IC50 in test [1] (setting [4]) came to 0.0924 µM; in test [2], 0.903 µM; in test [3], 10000 µM.
For the compound `O=C(NC1COc2ccccc2-n2cccc21)c1ncn(Cc2ccccc2F)n1` (racemic) [Compound I-38, (±)-N-(6,7-Dihydrobenzo[b]pyrrolo[1,2-d][1,4]oxazepin-7-yl)-1-(2-fluorobenzyl)-1H-1,2,4-triazole-3-carboxamide], the values for the IC50 in test [1] (setting [4]), in test [2] and in test [3] were 0.0223 µM, 0.0439 µM and 9.79 µM, respectively.
The like results for `O=C(NC1CCc2ccc(N3CCC4(CCOCC4)CC3)cc2-n2c1noc2=O)c1n[nH]c(Cc2ccccc2)n1` (racemic) [Compound I-65, (±)-5-Benzyl-N-(1-oxo-9-(3-oxa-9-azaspiro[5.5]undecan-9-yl)-5,6-dihydro-1H,4H-benzo[f][1,2,4]oxadiazolo[4,3-a]azepin-4-yl)-1H-1,2,4-triazole-3-carboxamide] were, in that order, 0.0678 µM, 0.0211 µM and 3.26 µM.
Regarding `O=C(NC1COc2ccccc2-n2cccc21)c1n[nH]c(Cc2ccccc2)n1` (racemic) [Compound I-34, (±)-5-Benzyl-N-(6,7-dihydrobenzo[b]pyrrolo[1,2-d][1,4]oxazepin-7-yl)-1H-1,2,4-triazole-3-carboxamide], the IC50 in test [1] (setting [4]) was 0.139 µM; in test [2] it was 1.54 µM; in test [3] it was 10000 µM.
The like results for `O=C(NC1CCc2ccccc2-n2ccnc21)c1n[nH]c(Cc2c(Cl)cccc2Cl)n1` (racemic) [Compound I-19, (±)-5-(2,6-Dichlorobenzyl)-N-(5,6-dihydro-4H-benzo[f]imidazo[1,2-a]azepin-4-yl)-1H-1,2,4-triazole-3-carboxamide] were, in that order, 0.393 µM, 0.96 µM and 10000 µM.
With `O=C(NC1CCc2ccccc2-n2c1noc2=O)c1n[nH]c(Cc2ccccc2)n1` (racemic) [Compound I-48, (±)-5-Benzyl-N-(1-oxo-5,6-dihydro-1H,4H-benzo[f][1,2,4]oxadiazolo[4,3-a]azepin-4-yl)-1H-1,2,4-triazole-3-carboxamide], the figures for the IC50 in test [1] (setting [4]), in test [2] and in test [3] were 0.0534 µM, 0.0408 µM and 10000 µM, respectively.
As to `O=C(NC1CCc2ccccc2-n2c(Cl)cnc21)c1n[nH]c(Cc2ccccc2)n1` (racemic) [Compound I-81, (±)-5-Benzyl-N-(1-chloro-5,6-dihydro-4H-benzo[f]imidazo[1,2-a]azepin-4-yl)-1H-1,2,4-triazole-3-carboxamide], the IC50 was 0.517 µM in test [1] (setting [4]), 4.25 µM in test [2] and 10000 µM in test [3].
The like results for `O=C(NC1CCc2ccccc2-n2cnnc21)c1ncn(Cc2ccccc2)n1` (racemic) [Compound I-63, (±)-1-Benzyl-N-(5,6-Dihydro-4H-benzo[f][1,2,4]triazolo[4,3-a]azepin-4-yl)-1H-1,2,4-triazole-3-carboxamide] were, in that order, 0.134 µM, 0.289 µM and 10000 µM.
The matching figures for `O=C(N[C@H]1C[S+]([O-])c2ccccc2-n2nnnc21)c1cc(Cc2ccccc2)on1` (stereo partly drawn) [Compound I-26, 5-Benzyl-N-((4R)-6-oxido-4,5-dihydrobenzo[b]tetrazolo[1,5-d][1,4]thiazepin-4-yl)isoxazole-3-carboxamide]: 1.37 µM, 0.176 µM and 10000 µM.
As for `O=C(N[C@H]1CSc2ccccc2-n2nnnc21)c1n[nH]c(Cc2ccc(F)cc2)n1` [Compound I-30, (R)—N-(4,5-Dihydrobenzo[&]tetrazolo[1,5-d][1,4]thiazepin-4-yl)-5-(4-fluorobenzyl)-1H-1,2,4-triazole-3-carboxamide], the IC50 in test [1] (setting [4]) amounted to 0.0186 µM; in test [2] it was 0.0679 µM; in test [3] it was 10000 µM.
With `O=C(NC1CCc2ccc(N3CCC4(CCOCC4)CC3)cc2-n2ccnc21)c1cc(Oc2ccccc2)ccn1` (racemic) [Compound I-62, (±)-N-(9-(3-Oxa-9-azaspiro[5.5]undecan-9-yl)-5,6-dihydro-4H-benzo[f]imidazo[1,2-a]azepin-4-yl)-4-phenoxypicolinamide], the IC50 in test [1] (setting [4]) was 0.0695 µM; in test [2], 0.0301 µM; in test [3], 10.1 µM.
The like results for `O=C(N[C@H]1CS(=O)(=O)c2ccccc2-n2nnnc21)c1cc(Cc2ccccc2)on1` [Compound I-25, (R)-5-Benzyl-N-(6,6-dioxido-4,5-dihydrobenzo[b]tetrazolo[1,5-d][1,4]thiazepin-4-yl)isoxazole-3-carboxamide] were, in that order, 0.51 µM, 28.6 µM and 10000 µM.
The like results for `O=C(N[C@H]1COc2ccccc2-n2nnnc21)c1cc(Cc2ccccc2)on1` [Compound I-8, (R)-5-Benzyl-N-(4,5-dihydrobenzo[6]tetrazolo[1,5-d][1,4]oxazepin-4-yl)isoxazole-3-carboxamide] were, in that order, 0.521 µM, 4.45 µM and 10000 µM.
As for `O=C(N[C@H]1COc2ccc(N3CC4(CCOCC4)C3)cc2-n2ccnc21)c1n[nH]c(Cc2ccccc2)n1` [Compound I-87, (R)—N-(9-(7-Oxa-2-azaspiro[3.5]nonan-2-yl)-4,5-dihydrobenzo[b]imidazo[1,2-d][1,4]oxazepin-4-yl)-5-benzyl-1H-1,2,4-triazole-3-carboxamide], the IC50 was 0.0682 µM in test [1], 0.0156 µM in test [2] and 10000 µM in test [3].
For `O=C(N[C@H]1COc2ccccc2-n2c1noc2=O)c1n[nH]c(Cc2ccc(F)cc2F)n1` [Compound I-49, 5-(2,4-Difluorobenzyl)-N-((4R)-1-oxo-4,5-dihydro-1H-benzo[b][1,2,4]oxadiazolo[4,3-d][1,4]oxazepin-4-yl)-1H-1,2,4-triazole-3-carboxamide], the results for the IC50 in test [1] (setting [4]), in test [2] and in test [3] were 0.347 µM, 0.717 µM and 10000 µM, respectively.
For the compound `CC(C)(O)C#Cc1ccc2c(c1)-n1cnnc1C(NC(=O)c1n[nH]c(Cc3ccccc3)n1)CC2` (racemic) [Compound I-72, (±)-5-Benzyl-N-(9-(3-hydroxy-3-methylbut-1-yn-1-yl)-5,6-dihydro-4H-benzo[f][1,2,4]triazolo[4,3-a]azepin-4-yl)-1H-1,2,4-triazole-3-carboxamide], the IC50 in test [1] (setting [4]) turned out to be 0.219 µM; in test [2], 0.708 µM; in test [3], 10000 µM.
The matching figures for `Cc1cn2c(n1)C(NC(=O)c1ncn(Cc3c(Cl)cccc3Cl)n1)CCc1ccccc1-2` (racemic) [Compound I-35, (±)-1-(2,6-Dichlorobenzyl)-N-(2-methyl-5,6-dihydro-4H-benzo[f]imidazo[1,2-a]azepin-4-yl)-1H-1,2,4-triazole-3-carboxamide]: 2.08 µM, 2.68 µM and 10000 µM.
For the compound `O=C(NC1CCc2ccccc2-n2cnnc21)c1n[nH]c(Cc2ccccc2)n1` (racemic) [Compound I-57, (±)-5-Benzyl-N-(5,6-dihydro-4H-benzo[f][1,2,4]triazolo[4,3-a]azepin-4-yl)-1H-1,2,4-triazole-3-carboxamide], the IC50 in test [1] (setting [4]) worked out at 0.663 µM; in test [2], 3.65 µM; in test [3], 10000 µM.
